The values below come from ChEMBL document CHEMBL1152117, “A versatile synthesis of 2-methoxyestradiol, an endogenous metabolite of estradiol which inhibits tubulin polymerization by binding to the colchicine binding site” (Bioorg Med Chem Lett, 1994).

The subject of assay [1] is Mus musculus. Kind of assay: In vivo inhibition of neovascularization of solid tumors when administered orally in mice; Active. The assay is classed as functional, organism-based.
In assay [2] the test system is Mus musculus. Nature of the assay: In vivo inhibition of growth of solid tumors when administered orally in mice; Active. The assay is classed as functional, organism-based.

SMILES strings stand for the structures. Active and inactive are the calls of the source. The rule behind the calls is not given here.

With `COc1cc2c(cc1O)CC[C@@H]1[C@@H]2CC[C@]2(C)[C@@H](O)CC[C@@H]12`, the outcome in the assay with Mus musculus [1] and with Mus musculus [2] was Active.
